Source: patent US20040106802A1, “Novel compounds and therapeutic uses thereof” (TORRENT PHARMACEUTICALS LTD., priority 2002, published 2004)
“And” between values parts separate entries of the source, which are not always exact repeats. Equal values may be shown once. Where a name gives a salt, the structure may show the parent alone. Read-outs that look alike come from different tables or passages of the source. Values belong to the compound of their own block, whether it stands above or below them.

Assays:
Porcine DPP-IV = molecular target: T1, Porcine DPP-IV (Sus scrofa, UniProt P22411); test: Assay of DPP-IV enzyme inhibitory activity (spectrophotometric, Gly-Pro-pNA cleavage); assay type: biochemical; conditions: Porcine DPP-IV, Gly-Pro-pNA substrate, 30° C., mean ± SD of three experiments except compound Nos. 133 & 139, read-out: IC50 (μM) Mean ± SD, inhibitory activity on DPP-IV enzyme activity
T1 construct: purchased Sigma-Aldrich Germany

[1] = system: STZ induced diabetic rats; test: In vivo oral glucose tolerance study in nSTZ induced diabetic rats, i.v. drug; conditions: 8 mg/ml/kg i.v.
Protocol: In Vivo Oral Glucose Tolerance Studies
The anti-hyperglycemic effect of compound no. 95 (8 mg/ml/kg, i.v) after an oral glucose load of 1 gm/kg was studied in STZ induced diabetic rats (modified method of Balkan et al 1999).
Animals: Male STZ induced diabetic rats aged 10-12 weeks and weighing between 200-250 gm were used for the study. These rats were treated with streptozotocin administered intraperitoneally on the day of birth at a dose of 90 mg/kg. They were maintained under standard conditions till the age of 10-12 weeks when they were used for the study.
Materials: Glucose solution (1 gm/4 ml of saline), Diethyl ether compound no. 95 (8 mg/ml/kg), vehicle (1 ml/kg), Heparinized saline (100 IU/ml), glucometer and strips
Method: Animals were divided into two groups
Group I: 8 hours fasted rats were treated with compound no. 95 vehicle (1 ml/kg, i.v.) 5 min before administration of glucose load.
Group II: 8 hours fasted rats were treated with compound no. 95 (8 mg/ml/kg, i.v) 5 min before administration of glucose load.
In both groups, blood samples were taken before administration of vehicle/compound no. 95 and glucose load for blood glucose estimation. Blood glucose level before administration of compound no. 95 or its vehicle was considered as −5 min reading. Blood glucose level before administration of glucose was considered as 0 min reading.
After 10, 20, 30, 45, 60, 75, 90, 120, 150 and 180 min of glucose administration, blood glucose level was estimated by the glucose oxidase method using a LifeScan glucometer (Ca, USA). Blood glucose level at various time points was subtracted from the basal (0 min) reading. This was done to avoid changes in AUC because of variation in basal glucose level. The glucose excursion at various time points was plotted against time and the AUC was calculated.
The activity of compound no. 95 was expressed as % reduction in AUC as compared with that of its vehicle.

[2] = In-vitro free radical scavenging activity using DPPH free radical; conditions: 30° C., 30 minutes, 515 nm
From the text: Free Radical Scavenging Activity:
To determine the in-vitro free radical scavenging activity of compounds of general formula-I on 2,2,-diphenyl-1-picrylhydrazyl (DPPH)radical (Ref: W. Brand-Williams, M. E. Cuvelier, C. Berset “Use of a free radical method to evaluate antioxidant activity”, Lebensm.- Wiss.u.Technol.,1995,28,Nr.1:25-30).
To evaluate the free radical scavenging activity of compounds they are allowed to react with stable radical DPPH*. In its radical form, DPPH* absorbed at the characteristic wave length of 515 nm, but upon reduction by an antioxidant or radical scavenger (AH), the absorption disappears.
10^−4M solution of DPPH* was prepared in methanol.
Various concentrations (10 mM, 1 mM, 0.5 mM, 0.25 mM and 0.125 mM) of drug solutions were prepared in methanol.
900 μl of DPPH radical solution was added to an eppendorf tube. To it was added 100 μl of methanol.
900 μl of DPPH radical solution was added to an eppendorf tube. To it was added 100 μl of various concentrations of drug solutions in methanol.
The absorbance of control and test samples was recorded after incubation at 30° C. for 30 minutes, at 515 nm taking methanol as blank.
The percent antioxidant activity was calculated according to the formula:
% Antioxidant activity=100−[O.D of test sample/O.D of control*100]

zucker fatty rats = conditions: cited from earlier work
DPP-IV = conditions: in vivo; cited from earlier work
nOSTZ diabetic rats = test: Oral glucose tolerance test in neonatal streptozotocin-induced (nOSTZ) diabetic rats, oral drug; assay type: in vivo, Wistar rats; conditions: 22 mg/kg oral; for percent change in blood glucose from basal glucose level / peak glucose levels (% from basal level): glucose load 1 g/kg; for peak glucose levels (% from basal level): significantly lower than vehicle (157.07±14.17%); for glucose tolerance (in words): nOSTZ rats
From the text: Effect of Compound no. 140 and Compound no. 142 on Oral Glucose Tolerance in Neonatel Streptozotocin-Induced (nO STZ) Diabetic Rats
Principle of Glucose Estimation by Glucometer (One Touch, Lifescan, USA)
Glucose and oxygen react in the presence of glucose oxidase yielding gluconic acid and hydrogen peroxide. Hydrogen peroxide subsequently oxidizes the dyes in a reaction mediated by Peroxidase producing a blue colored form of the dyes (Marks and Dawson, 1965). The intensity of the blue color is proportional to the glucose concentration in the sample.
Wistar rats were made type 2 diabetic by injecting streptozotocin (STZ) at the dose of 90 mg/kg intraperitoneally on the day of birth (nOSTZ) to male pups (Portha et al, 2001). Animals showing overnight fasted blood glucose levels between 7-10 mM at the age of 10-12 weeks were used for the study. On the day of the experiment, animals were fasted overnight with free access to water.
Oral Glucose Tolerance Test (OGTT) (Pospisilik et al, 2002)
External jugular vein of overnight fasted nOSTZ rats was cannulated using polyethylene cannula with heparinized (100 IU/ml) saline under ether anesthesia and exteriorized at the back of the neck. After the animal was recovered from the anesthesia, blood sample was drawn as marked as ‘−5 min’ sample and drug formulation (in 0.5% sodium caboxymethyl cellulose, Na-CMC) was administered orally at the volume of 1 ml/kg body weight.
5 min after drug administration, blood sample was drawn as ‘0 min’ sample and glucose load at the dose of 1 g/kg body weight was administered orally. Blood samples were drawn subsequently at 5, 10, 15, 20, 30, 45, 60, 75, 90, 120, 180, 240 and 360 min time interval. Blood glucose is measured using glucometer.
Animals were divided into three groups: 1. Vehicle (0.5% Na-CMC) treated, 2. Compound no. 140 treated (22 mg/kg) and 3. Compound no. 142 treated (22 mg/kg).
Change in blood glucose at various time points was measured as percent increase or decrease from basal glucose level. Area under the curve (AUC) for glucose was calculated using WinNonlin software.

[3] = in vivo; cited from earlier work

T1 sequence (P22411 whole entry): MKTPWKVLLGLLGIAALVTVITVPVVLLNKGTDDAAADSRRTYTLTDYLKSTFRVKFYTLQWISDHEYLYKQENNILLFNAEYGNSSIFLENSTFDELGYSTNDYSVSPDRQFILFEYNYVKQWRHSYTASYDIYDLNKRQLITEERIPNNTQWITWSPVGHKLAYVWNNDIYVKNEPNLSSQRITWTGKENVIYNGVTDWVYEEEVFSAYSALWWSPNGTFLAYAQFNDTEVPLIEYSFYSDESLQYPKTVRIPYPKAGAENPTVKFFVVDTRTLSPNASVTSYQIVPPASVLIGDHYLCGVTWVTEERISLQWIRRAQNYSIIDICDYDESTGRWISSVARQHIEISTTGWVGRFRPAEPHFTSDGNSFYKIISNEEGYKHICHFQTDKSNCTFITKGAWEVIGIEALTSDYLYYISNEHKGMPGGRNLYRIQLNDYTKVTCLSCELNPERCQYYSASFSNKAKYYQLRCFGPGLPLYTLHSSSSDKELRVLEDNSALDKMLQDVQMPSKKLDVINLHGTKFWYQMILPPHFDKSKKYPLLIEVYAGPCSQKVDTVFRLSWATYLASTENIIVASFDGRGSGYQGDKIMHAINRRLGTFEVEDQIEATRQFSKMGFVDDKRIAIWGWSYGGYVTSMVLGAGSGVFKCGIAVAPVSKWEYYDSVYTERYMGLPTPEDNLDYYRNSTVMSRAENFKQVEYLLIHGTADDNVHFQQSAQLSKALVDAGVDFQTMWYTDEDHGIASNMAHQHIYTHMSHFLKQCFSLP

Compound: N#CC1CCCN1C(=O)C1CNCCN1.O=C(O)C(F)(F)F.O=C(O)C(F)(F)F (stereo not drawn) [Compound No. 1, 2-Cyano-1-(piperazine-2-yl)-carbonyl pyrrolidine bis-trifluoroacetate]
IC50 (Porcine DPP-IV): 47.6 ± 2.72 µM
melting point: 126 to 128 °C

Compound: N#CC1CSCN1C(=O)CN(N)C1CCN(CC(=O)Nc2ccc(Cl)cn2)CC1 (stereo not drawn) [Compound No. 95]
Glucose excursions after a 1 gm/kg glucose load ([1]; 0 min): 0.0
AUC values mM * min of glucose excursion ([1]; 5 min before 1 gm/kg glucose load, Mean ± SD, P < 0.05 vs vehicle): 413.3±134.6 mM * min and 413.3 ± 134.6a mM * min
effect on hyperglycemia (in words) ([1]; nSTZ induced diabetic rats): controls hyperglycemia and brings the glucose levels to normoglycemic range
Glucose excursions after a 1 gm/kg glucose load ([1]; 10 min): 3.9
Glucose excursions after a 1 gm/kg glucose load ([1]; 20 min): 5.9
Glucose excursions after a 1 gm/kg glucose load ([1]; 30 min): 7.8
Glucose excursions after a 1 gm/kg glucose load ([1]; 45 min): 6.2
Glucose excursions after a 1 gm/kg glucose load ([1]; 60 min): 4.1
Glucose excursions after a 1 gm/kg glucose load ([1]; 75 min): 2.7
Glucose excursions after a 1 gm/kg glucose load ([1]; 90 min): 0.5
Glucose excursions after a 1 gm/kg glucose load ([1]; 120 min): −2.8
Glucose excursions after a 1 gm/kg glucose load ([1]; 150 min): −4.1
Glucose excursions after a 1 gm/kg glucose load ([1]; 180 min): −3.9
% Activity (antioxidant, DPPH) ([2]; Concentration 12.5 μM, 12.5 µM): 22.06%
% Activity (antioxidant, DPPH) ([2]; Concentration 25 μM, 25 µM): 36.87%
% Activity (antioxidant, DPPH) ([2]; Concentration 50 μM, 50 µM): 44.81%
% Activity (antioxidant, DPPH) ([2]; Concentration 100 μM, 100 µM): 65.52%

Compound: CC[C@H](C)[C@H](N)C(=O)N1CCSC1 [Isoleucine thiazolidide]
glucose tolerance (in words) (zucker fatty rats): improved glucose tolerance

Compound: N#Cc1ccc(NCCNCC(=O)N2CCC[C@H]2C#N)nc1 [NVP-DPP-728, 1-[-2-{(5-cyanopyridin-2-yl)amino}ethylamino]acetyl-2-cyano-(S)-pyrrolidine]
insulin secretion and glucose tolerance (in words) (DPP-IV): improves insulin secretion and glucose tolerance

Compound: GLP-19-36
apparent half-life in the circulation [3]: 4 to 5 min

Continued, in another order:

melting point: 148 to 150 °C (dec.)
Compound: CC(C)N(N)C(=O)N1CSCC1C#N.Cl (stereo not drawn)

melting point: 160 to 162 °C (dec.)
Compound: Cl.N#CC1CCCN1C(=O)N(N)C1CCCCC1 (stereo not drawn)

melting point: 166 to 168 °C (dec.)
Compound: Cl.N#CC1CSCN1C(=O)N(N)C1CCCCC1 (stereo not drawn)

IC50 (Porcine DPP-IV; trihydrochloride): 0.13 ± 0.03 µM
Compound: Cl.Cl.Cl.N#Cc1ccc(NC(=O)CN2CCC(N(N)CC(=O)N3CSCC3C#N)CC2)nc1 (stereo not drawn) [compound 140, 3-[1-oxo-2-(1-(1-(2-oxo-2-(5-cyanopyridin-2-yl)aminoethyl)piperidin-4-yl))hydrazino]ethyl-4-cyano thiazolidine, trihydrochloride]
percent change in blood glucose from basal glucose level (nOSTZ diabetic rats; 0 min): 0.0 ± 0.0%
peak glucose levels (% from basal level) (nOSTZ diabetic rats): 99.19±17.87%
glucose tolerance (in words) (nOSTZ diabetic rats): improved glucose tolerance
percent change in blood glucose from basal glucose level (nOSTZ diabetic rats; 5 min): 21.97 ± 1.14%
percent change in blood glucose from basal glucose level (nOSTZ diabetic rats; 10 min): 49.11 ± 11.7%
percent change in blood glucose from basal glucose level (nOSTZ diabetic rats; 15 min): 64.67 ± 10.17%
percent change in blood glucose from basal glucose level (nOSTZ diabetic rats; 20 min): 69.62 ± 12.73%
percent change in blood glucose from basal glucose level (nOSTZ diabetic rats; 30 min): 90.29 ± 22.93%
percent change in blood glucose from basal glucose level (nOSTZ diabetic rats; 45 min): 99.19 ± 17.87%
percent change in blood glucose from basal glucose level (nOSTZ diabetic rats; 60 min): 82.76 ± 16.22%
percent change in blood glucose from basal glucose level (nOSTZ diabetic rats; 90 min): 34.3 ± 20.32%
percent change in blood glucose from basal glucose level (nOSTZ diabetic rats; 120 min): −21.87 ± 25.68%
percent change in blood glucose from basal glucose level (nOSTZ diabetic rats; 180 min): −45.71 ± 18.48%
percent change in blood glucose from basal glucose level (nOSTZ diabetic rats; 240 min): −48.6 ± 13.58%
percent change in blood glucose from basal glucose level (nOSTZ diabetic rats; 360 min): −49.76 ± 10.31%

IC50 (Porcine DPP-IV): 0.07 ± 0.01 µM
Compound: N#CC1CSCN1C(=O)CN(N)C1CCN(CC(=O)Nc2ccc(S(N)(=O)=O)cc2)CC1 (stereo not drawn) [compound 142, 3-[1-oxo-2-(1-(1-(2-oxo-2-(4-aminosulphonylphenyl)aminoethyl)piperidin-4-yl))hydrazino]ethyl-4-cyano thiazolidine, dihydrochloride]
percent change in blood glucose from basal glucose level (nOSTZ diabetic rats; 0 min): 0.0 ± 0.0%
peak glucose levels (% from basal level) (nOSTZ diabetic rats): 87.25±15.61%
glucose tolerance (in words) (nOSTZ diabetic rats): improved glucose tolerance
percent change in blood glucose from basal glucose level (nOSTZ diabetic rats; 5 min): 9.79 ± 4.13%
percent change in blood glucose from basal glucose level (nOSTZ diabetic rats; 10 min): 29.41 ± 3.4%
percent change in blood glucose from basal glucose level (nOSTZ diabetic rats; 15 min): 46.51 ± 5.23%
percent change in blood glucose from basal glucose level (nOSTZ diabetic rats; 20 min): 56.51 ± 4.33%
percent change in blood glucose from basal glucose level (nOSTZ diabetic rats; 30 min): 77.93 ± 12.12%
percent change in blood glucose from basal glucose level (nOSTZ diabetic rats; 45 min): 87.25 ± 15.61%
percent change in blood glucose from basal glucose level (nOSTZ diabetic rats; 60 min): 67.33 ± 11.49%
percent change in blood glucose from basal glucose level (nOSTZ diabetic rats; 90 min): 67.45 ± 9.8%
percent change in blood glucose from basal glucose level (nOSTZ diabetic rats; 120 min): 31.4 ± 8.51%
percent change in blood glucose from basal glucose level (nOSTZ diabetic rats; 180 min): −48.05 ± 5.75%
percent change in blood glucose from basal glucose level (nOSTZ diabetic rats; 240 min): −58.87 ± 6.10%
percent change in blood glucose from basal glucose level (nOSTZ diabetic rats; 360 min): −63.57 ± 4.77%
